Laboratory results reported in patent publication US20230192617A1, “AZABICYCLIC(THIO)AMIDES AS FUNGICIDAL COMPOUNDS” (Bayer CropScience Aktiengesellschaft, priority 2020, published 2023).

Tests used:
[1] = Measurement of Log P values by HPLC on reversed phase columns (EEC directive 79/831 Annex V.A8); assay type: physicochemical; settings: reversed phase HPLC column, method [a]: LC-UV, acidic range, 0.1% formic acid in water and acetonitrile as eluent
Experimental: A-1.1. Measurement of Log P Values
Measurement of Log P values as provided herein was performed according to EEC directive 79/831 Annex V.A8 by HPLC (High Performance Liquid Chromatography) on reversed phase columns with the following methods:
^[a] Log P value is determined by measurement of LC-UV, in an acidic range, with 0.1% formic acid in water and acetonitrile as eluent (linear gradient from 10% acetonitrile to 95% acetonitrile).
^[b] Log P value is determined by measurement of LC-UV, in a neutral range, with 0.001 molar ammonium acetate solution in water and acetonitrile as eluent (linear gradient from 10% acetonitrile to 95% acetonitrile).
^[c] Log P value is determined by measurement of LC-UV, in an acidic range, with 0.1% phosphoric acid and acetonitrile as eluent (linear gradient from 10% acetonitrile to 95% acetonitrile).
If more than one Log P value is available within the same method, all the values are given and separated by “+”. […]

Botrytis cinerea [2] = assay: In vivo preventive test on Botrytis cinerea (grey mould); settings: 500 ppm of active ingredient, preventive spray on gherkin or cabbage, evaluated 4 to 5 days after inoculation, read-out: efficacy
Experimental: B-2. In Vivo Preventive Test on Botrytis cinerea (Grey Mould) [table] The active ingredients were made soluble and homogenized in a mixture of Dimethyl sulfoxide/Acetone/Tween® 80 and then diluted in water to the desired concentration. The young plants of gherkin or cabbage were treated by spraying the active ingredient prepared as described above. Control plants were treated only with an aqueous solution of Acetone/Dimethyl sulfoxide/Tween® 80. After 24 hours, the plants were contaminated by spraying the leaves with an aqueous suspension of Botrytis cinerea spores. The contaminated gherkin plants were incubated for 4 to 5 days at 17° C. and at 90% relative humidity. The contaminated cabbage plants were incubated for 4 to 5 days at 20° C. and at 100% relative humidity.

Alternaria alternata = Alternaria alternata in vitro cell test; assay type: cell-based; settings: 120 h, 20 ppm of active ingredient, liquid culture, 5 days incubation, spectrometric measurement of mycelium growth, read-out: efficacy (inhibition of fungal growth)
Experimental: (§1) B-6. Alternaria alternata In Vitro Cell Test [table] Fungicides were solubilized in DMSO and the solution used to prepare the required range of concentrations. The final concentration of DMSO used in the assay was ≤1%. A spore suspension of A. alternata was prepared and diluted to the desired spore density. Fungicides were evaluated for their ability to inhibit spore germination and mycelium growth in liquid culture assay. The compounds were added in the desired concentration to the culture medium with spores. After 5 days incubation, fungi-toxicity of compounds was determined by spectrometric measurement of mycelium growth. Inhibition of fungal growth was determined by comparing the absorbance values in wells containing the fungicides with the absorbance in control wells without fungicides.

[3] = tested on: Colletotrichum lindemuthianum; assay: B-8. Colletotrichum lindemuthianum in vitro cell test; assay type: cell-based; settings: 144 h, 20 ppm of active ingredient, 6 days incubation, liquid culture, absorbance, read-out: efficacy (inhibition of fungal growth)
Experimental: as §1, with “B-8. Colletotrichum lindemuthianum In” for “B-6. Alternaria alternata In”, “of C. lindemuthianum” for “of A. alternata”, “inhibit spores” for “inhibit spore”, “After 6” for “After 5”

Alternaria brassicae = assay: In vivo preventive test on Alternaria brassicae (leaf spot on radish or cabbage); settings: 500 ppm of active ingredient, preventive spray on radish or cabbage, evaluated 3 to 4 days after inoculation, read-out: efficacy
Experimental: B-1. In Vivo Preventive Test on Alternaria brassicae (Leaf Spot on Radish or Cabbage) [table] The active ingredients were made soluble and homogenized in a mixture of Dimethyl sulfoxide/Acetone/Tween® 80 and then diluted in water to the desired concentration. The young plants of radish or cabbage were treated by spraying the active ingredient prepared as described above. Control plants were treated only with an aqueous solution of Acetone/Dimethyl sulfoxide/Tween® 80. After 24 hours, the plants were contaminated by spraying the leaves with an aqueous suspension of Alternaria brassicae spores. The contaminated radish or cabbage plants were incubated for 3 to 4 days at 20° C. and at 100% relative humidity.

Pyrenophora teres = assay: B-10. Pyrenophora teres in vitro cell test; assay type: cell-based; settings: 144 h, 20 ppm of active ingredient, 6 days incubation, liquid culture, absorbance, read-out: efficacy (inhibition of fungal growth)
Experimental: as §1, with “B-10. Pyrenophora teres” for “B-6. Alternaria alternata”, “P. teres” for “A. alternata”, “6” for “5”

Botrytis cinerea [4] = assay: B-11. Botrytis cinerea in vitro cell test; assay type: cell-based; settings: 144 h, 20 ppm of active ingredient, 6 days incubation, liquid culture, absorbance, read-out: efficacy (inhibition of fungal growth)
Experimental: as §1, with “B-11. Botrytis cinerea” for “B-6. Alternaria alternata”, “B. cinerea” for “A. alternata”, “6” for “5”

| Structure (SMILES) | chromatographic logP [1] | pest or weed control at 500 ppm (Botrytis cinerea [2]) | inhibition at 20 ppm (Alternaria alternata) | inhibition at 20 ppm [3] | pest or weed control at 500 ppm (Alternaria brassicae) | inhibition at 20 ppm (Pyrenophora teres) | inhibition at 20 ppm (Botrytis cinerea [4]) |
| --- | --- | --- | --- | --- | --- | --- | --- |
| O=C(N[C@H]1CCCc2cc(Cl)sc21)c1c(Oc2cccc(C(F)(F)F)c2)cnc2ccccc12 (racemic) [I-040] | 4.54 | 80 to 89% | 90 to 100% | 90 to 100% |  |  |  |
| C[C@H](NC(=O)c1c(Oc2cccc(Cl)c2)nnc2ccccc12)c1cccc(C(F)(F)F)c1 (racemic) [I-016] | 3.9 | 90 to 100% | 80 to 89% | 80 to 89% | 90 to 100% |  |  |
| O=C(NCCc1cnc(C(F)(F)F)nc1)c1c(Oc2cccc(C(F)(F)F)c2)nnc2ccccc12 [I-195] | 3.22 |  |  |  |  | 90 to 100% |  |
| N#Cc1ccc(CONC(=O)c2c(Oc3cccc(C(F)(F)F)c3)nnc3ccccc23)cc1 [I-088] | 3.07 |  |  | 90 to 100% |  |  | 90 to 100% |
| Cc1ccc(CCNC(=O)c2c(Oc3cccc(C(F)(F)F)c3)nnc3cc(F)ccc23)c(C)c1 [I-007] | 4.4 | 90 to 100% | 90 to 100% | 90 to 100% |  |  |  |
| O=C(NCC(F)(F)c1ccc(Cl)cc1)c1c(Oc2ccc(Cl)cc2)nnc2ccccc12 [I-018] | 3.96 | 90 to 100% | 80 to 89% |  |  |  |  |
| N#Cc1cccc(Oc2nnc3ccccc3c2C(=O)NC[C@H](F)c2ccc(Br)cc2Cl)c1 (racemic) [I-031] | 3.65 | 90 to 100% | 90 to 100% | 90 to 100% | 90 to 100% |  |  |
| N#Cc1cccc(Oc2nnc3ccccc3c2C(=O)NCC(F)(F)c2ccc(Cl)cc2)c1 [I-160] | 3.33 |  | 90 to 100% | 90 to 100% | 80 to 89% |  |  |
| O=C(NCC(F)(F)c1ccc(Cl)cc1)c1c(Oc2cccc(C(F)(F)F)c2)cnc2ccccc12 [I-037] | 4.23 | 80 to 89% |  | 90 to 100% |  |  | 90 to 100% |
| C[C@H](NC(=O)c1c(Oc2cccc(C(F)(F)F)c2)nnc2ccccc12)c1cccc(C(F)(F)F)c1 (racemic) [I-022] | 4.03 | 90 to 100% | 80 to 89% | 70 to 79% |  |  |  |
| O=C(N/C=C\c1ccccc1)c1c(Oc2cccc(C(F)(F)F)c2)cnc2ccccc12 [I-001] | 4.17 | 90 to 100% | 70 to 79% |  |  |  |  |
| O=C(NC[C@@H](F)c1ccc(Cl)c(Cl)c1)c1c(Oc2cccc(Cl)c2)nnc2ccccc12 (racemic) [I-051] | 4.23 |  | 90 to 100% | 90 to 100% | 70 to 79% |  |  |
| COc1ccc2c(C(=O)NCCc3ccc(C)cc3C)c(Oc3cccc(C(F)(F)F)c3)nnc2c1 [I-009] | 4.3 |  | 90 to 100% |  |  |  |  |
| Cc1ccc2c(C(=O)N[C@H]3CCCc4cc(Br)ccc43)c(Oc3cccc(C(F)(F)F)c3)nnc2c1 (racemic) [I-181] | 4.88 |  | 80 to 89% |  |  |  |  |
| COc1cc(OC)nc(Oc2cnc3ccccc3c2C(=O)NCC(F)(F)c2ccc(C)cc2C)n1 [I-187] | 3.74 |  | 70 to 79% |  |  | 90 to 100% |  |
| O=C(NCC(F)(F)c1ccc(Cl)cn1)c1c(Oc2cccc(C(F)F)c2)nnc2ccccc12 [I-036] | 3.2 | 90 to 100% | 90 to 100% | 90 to 100% | 90 to 100% |  |  |
| CC(C)CON(Cc1ccccc1)C(=O)c1c(Oc2cccc(C(F)(F)F)c2)nnc2ccccc12 [I-170] | 4.86 |  |  | 70 to 79% |  |  | 90 to 100% |
| O=C(NCC(F)(F)c1ccc(Br)cc1Cl)c1c(Oc2cccc(Cl)c2)nnc2ccccc12 [I-013] | 4.46 | 90 to 100% | 90 to 100% | 90 to 100% | 90 to 100% |  |  |
| Cc1ccc(C(F)(F)F)cc1Oc1nnc2ccccc2c1C(=O)NC[C@H](F)c1ccc(Cl)cc1Cl (racemic) [I-183] | 4.74 |  |  |  |  | 70 to 79% |  |
| O=C(N[C@H]1CCOc2ccc(F)cc21)c1c(Oc2cccc(C(F)(F)F)c2)nnc2ccccc12 (racemic) [I-165] | 3.69 |  |  |  |  | 90 to 100% |  |
| N#Cc1cccc(Oc2nnc3ccccc3c2C(=O)NCC(F)(F)c2ccc(Br)cc2Cl)c1 [I-032] | 3.77 | 90 to 100% | 90 to 100% | 90 to 100% |  |  |  |
| Cc1ccc(CCNC(=O)c2c(Oc3cccc(C(F)(F)F)c3)nnc3c(C)cccc23)c(C)c1 [I-005] | 4.69 | 90 to 100% | 90 to 100% | 80 to 89% |  |  |  |
| Cc1ccc2c(C(=O)NCC(F)(F)c3ccc(Br)cc3Cl)c(Oc3cccc(C(F)(F)F)c3)nnc2c1 [I-045] | 4.64 | 90 to 100% | 90 to 100% | 90 to 100% | 90 to 100% |  |  |
| Cc1ccc(C(F)(F)CNC(=O)c2c(Oc3cccc(C#N)c3)nnc3ccccc23)c(C)c1 [I-030] | 3.58 | 90 to 100% | 90 to 100% | 90 to 100% |  |  |  |
| Cc1ccc(CCNC(=O)c2c(Oc3cccc(C(F)(F)F)c3)nnc3cnccc23)c(C)c1 [I-011] | 3.88 | 90 to 100% | 90 to 100% |  | 80 to 89% |  |  |
| Cc1ccc(C(F)(F)CNC(=S)c2c(Oc3cccc(Cl)c3)nnc3ccccc23)c(C)c1 [I-158, 3-(3-chlorophenoxy)-N-[2-(2,4-dimethylphenyl)-2,2-difluoro-ethyl]cinnoline-4-carbothioamide] | 5.01 |  | 90 to 100% | 90 to 100% | 90 to 100% |  |  |
| O=C(NCC(F)(F)c1ccc(Br)cc1Cl)c1c(Oc2ccc(Cl)cc2)nnc2ccccc12 [I-019] | 4.46 | 90 to 100% | 80 to 89% |  | 70 to 79% |  |  |
